This is an account of results in paper PMC4368888, “Preclinical to Clinical Translation of CNS Transporter Occupancy of TD-9855, a Novel Norepinephrine and Serotonin Reuptake Inhibitor” (International Journal of Neuropsychopharmacology, 2015).

Data set [1] has as its target T1, human recombinant DAT (Homo sapiens, UniProt Q01959).
T1 construct: expressed in transfected cells; 'hDAT cells' for uptake
Kind of data set: [3H]-DA uptake inhibition in hDAT cells. The settings on record: mean (95% CI), 3 to 9 experiments, read-out: Neurotransmitter Uptake Inhibition: pIC50 DAT (converted). In kind it is cell-based. An excerpt:
(§1) The in vitro pharmacology of TD-9855 (4-[2-(2, 4, 6-trifluorophenoxymethyl)phenyl]piperidine; Figure 1) at human recombinant and rat native monoamine transporters was characterized as described previously ([Tsuruda et al., 2010]; [Shen et al., 2013]). Radioligands were sourced commercially (Perkin Elmer Life Sciences or GE Healthcare Life Sciences). Briefly, membranes prepared from HEK293 (Human Embryonic Kidney 293) cells stably-transfected with human recombinant SERT (HEK293-hSERT), NET (HEK293-hNET), or DAT ([…]) were incubated for 1hr at 22°C in the absence, or presence, of TD-9855 and [^3H]-citalopram (1.0nM) for SERT, [^3H]-nisoxetine (2.0nM) for NET, and [^3H]-WIN35428 (3.0nM) for DAT in 50mM Tris-HCl, 120mM NaCl, 5mM KCl, 0.025% BSA, 100 μM ascorbic acid, pH 7.4. Rat cortical membrane preparations were incubated with [^3H]-citalopram (2.0nM) for SERT or [^3H]-nisoxetine (4.0nM) for NET for 1hr at 22°C. […] Binding and uptake assays were terminated by rapid filtration and radioactivity, determined by liquid scintillation spectroscopy.

In data set [2] the target is T2, rat native NET (Rattus norvegicus, UniProt Q63380). Kind of data set: [3H]-NE uptake inhibition in rat cortical synaptosomes. In kind it is biochemical. The settings on record: Rat; mean (95% CI), 3 to 9 experiments.
From the text: as §1

The test system of data set [3] is rat native NET. The description is as above. In kind it is biochemical. As to conditions: rat cortical synaptosomes, uptake.
From the text: as §1

Data set [4] addresses T3, rat native DAT (Rattus norvegicus, UniProt P23977).
T3 construct: at human recombinant and rat native monoamine transporters; from tissue; host or cells: rat striatal synaptosomes
Nature of the data set: [3H]-DA uptake inhibition in rat striatal synaptosomes. In kind it is biochemical. As to conditions: mean (95% CI), 3 to 9 experiments, read-out: Neurotransmitter Uptake Inhibition: pIC50 DAT (converted).
From the text: as §1

Data set [5] is described as follows: in vivo. As to conditions: Sprague Dawley, rat, po. Here is the method: TD-9855 Rat Administration and Sampling — Rats (n = 6/timepoint/dose level) received a single oral dose of TD-9855 (0.3, 1, 5, 10, 30, and 60mg/kg) and were euthanized by decapitation at specified time points (0.5, 2, 4, 6, and 8hr for 5mg/kg dose level; 2hr for 0.3, 1, 10, 30, and 60mg/kg dose levels) post-administration. Spinal cords were dissected for ex vivo transporter occupancy and PK assessments from the same animals. The spinal cord was harvested by hydraulic extrusion using phosphate-buffered saline, and the lumbar segment dissected and frozen on dry ice. The remaining spinal cord segments were collected and homogenized in water (25% w/w) for PK analysis. All samples were stored at -80 °C until analysis.
Rat PK/PD Modeling — PK/PD parameters were estimated by a compartmental modeling approach (WinNonlin Version 5.0.1, Pharsight Corporation). One- and two-compartment PK models with first-order absorption and elimination were evaluated. The one-compartment model was selected. The pharmacodynamic model was an effect compartment Emax model linked directly to the central PK compartment (WinNonlin PK Model 3, PD Model 101). Selection of models was based upon best fit in terms of visual inspection, Akaike Information Criteria, and weighted residual sum of squares using the Gauss-Newton minimization method. The following parameters were estimated:
k01 (hr^-1): First-order absorption rate constant.
V/F (L/kg): Volume of the central compartment divided by oral bioavailability
k10 (hr^-1): Elimination rate constant from the central compartment

The nature of data set [6]: Human plasma pharmacokinetics. In kind it is in vivo. The settings on record: 20mg single oral dose, Day 1, n = 3. On the procedure: Four 6mL samples were drawn at 2, 4, 6, and 24hr post TD-9855 dosing. Three additional 6mL samples were drawn prior to each PET scan and approximately 60 and 120min after the beginning of each PET scan. Plasma samples were analyzed for TD-9855 concentrations by a validated LC-MS/MS method. The lower limit of quantification for TD-9855 was 0.05ng/mL.

In data set [7] the target is T4, NET (Homo sapiens, UniProt P23975). Kind of data set: Transporter binding kinetics in vitro at human NET.
Data set [8] can be described thus: Safety and tolerability in Phase 1 PET study. In kind it is in vivo, human. As to conditions: healthy males, single oral dose 4-20mg. On the procedure: All adverse events (AEs) were assessed by the investigator and recorded in the case report form, including the dates of onset and resolution, severity, relationship to study drug, outcome, and action taken with study medication after the dosing of TD-9855 through the follow-up visit. Safety was assessed during the entire study by measurement of vital signs, laboratory tests, and evaluation of ECGs.

For data set [9] the following is noted: human, data on file, cited from earlier work.
On the set-up of data set [10]: method as in Theravance Biopharma US, Inc., data on file. The settings on record: rat; ref Theravance Biopharma US, Inc., data on file; cited from earlier work.
Data set [11] concerns P-gp. On the set-up: method as in Theravance Biopharma US, Inc., data on file. The settings on record: ref Theravance Biopharma US, Inc., data on file; cited from earlier work.
The target of data set [12] is T2, rat native NET. Kind of data set: [3H]-nisoxetine binding, rat cortical membranes. On the set-up: at human recombinant and rat native monoamine transporters; from tissue. As to conditions: mean (95% CI), 3 to 9 experiments, read-out: Transporter Binding: pKi NET (converted).
From the text: as §1

Data set [13] deals with T4, NET. Kind of data set: [3H]-nisoxetine equilibrium binding, HEK293-hNET membranes. The arrangement: expressed in transfected cells; host or cells: HEK293 (HEK293-hNET), stably transfected. As to conditions: mean (95% CI), 3 to 9 experiments, read-out: Transporter Binding: pKi NET (converted).
From the text: as §1

SMILES strings stand for the structures.

T4 sequence (P23975 whole entry): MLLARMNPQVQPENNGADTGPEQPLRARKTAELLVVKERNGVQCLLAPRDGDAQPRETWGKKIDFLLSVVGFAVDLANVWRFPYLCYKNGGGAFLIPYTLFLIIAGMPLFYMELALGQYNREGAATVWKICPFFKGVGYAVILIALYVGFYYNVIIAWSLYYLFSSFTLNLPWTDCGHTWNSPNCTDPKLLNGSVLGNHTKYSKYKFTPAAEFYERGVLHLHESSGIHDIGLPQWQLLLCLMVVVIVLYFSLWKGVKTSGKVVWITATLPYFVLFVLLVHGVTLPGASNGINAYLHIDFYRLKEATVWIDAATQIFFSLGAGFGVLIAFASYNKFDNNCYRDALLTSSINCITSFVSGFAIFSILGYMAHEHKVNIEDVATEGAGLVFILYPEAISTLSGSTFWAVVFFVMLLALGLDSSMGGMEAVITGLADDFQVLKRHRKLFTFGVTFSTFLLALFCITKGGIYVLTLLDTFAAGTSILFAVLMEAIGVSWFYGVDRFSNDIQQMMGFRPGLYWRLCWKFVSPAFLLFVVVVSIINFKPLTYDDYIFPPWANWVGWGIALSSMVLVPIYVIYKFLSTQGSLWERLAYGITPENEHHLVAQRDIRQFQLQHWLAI
T2 sequence (Q63380 1-617): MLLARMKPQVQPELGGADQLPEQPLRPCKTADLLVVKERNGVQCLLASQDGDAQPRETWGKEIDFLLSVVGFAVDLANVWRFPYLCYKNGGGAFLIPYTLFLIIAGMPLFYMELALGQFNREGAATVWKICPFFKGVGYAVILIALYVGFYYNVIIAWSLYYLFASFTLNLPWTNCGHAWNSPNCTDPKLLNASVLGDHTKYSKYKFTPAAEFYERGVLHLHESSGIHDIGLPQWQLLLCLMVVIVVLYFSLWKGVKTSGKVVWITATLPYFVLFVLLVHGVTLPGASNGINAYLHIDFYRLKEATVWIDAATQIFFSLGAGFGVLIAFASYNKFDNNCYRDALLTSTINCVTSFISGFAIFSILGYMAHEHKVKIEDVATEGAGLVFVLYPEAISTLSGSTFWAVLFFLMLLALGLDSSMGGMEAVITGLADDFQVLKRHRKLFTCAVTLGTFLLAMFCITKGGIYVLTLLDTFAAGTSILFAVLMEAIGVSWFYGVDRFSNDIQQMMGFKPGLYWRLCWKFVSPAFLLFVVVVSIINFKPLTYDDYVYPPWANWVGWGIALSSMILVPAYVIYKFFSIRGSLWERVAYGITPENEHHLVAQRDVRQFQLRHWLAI
T1 sequence (Q01959 whole entry): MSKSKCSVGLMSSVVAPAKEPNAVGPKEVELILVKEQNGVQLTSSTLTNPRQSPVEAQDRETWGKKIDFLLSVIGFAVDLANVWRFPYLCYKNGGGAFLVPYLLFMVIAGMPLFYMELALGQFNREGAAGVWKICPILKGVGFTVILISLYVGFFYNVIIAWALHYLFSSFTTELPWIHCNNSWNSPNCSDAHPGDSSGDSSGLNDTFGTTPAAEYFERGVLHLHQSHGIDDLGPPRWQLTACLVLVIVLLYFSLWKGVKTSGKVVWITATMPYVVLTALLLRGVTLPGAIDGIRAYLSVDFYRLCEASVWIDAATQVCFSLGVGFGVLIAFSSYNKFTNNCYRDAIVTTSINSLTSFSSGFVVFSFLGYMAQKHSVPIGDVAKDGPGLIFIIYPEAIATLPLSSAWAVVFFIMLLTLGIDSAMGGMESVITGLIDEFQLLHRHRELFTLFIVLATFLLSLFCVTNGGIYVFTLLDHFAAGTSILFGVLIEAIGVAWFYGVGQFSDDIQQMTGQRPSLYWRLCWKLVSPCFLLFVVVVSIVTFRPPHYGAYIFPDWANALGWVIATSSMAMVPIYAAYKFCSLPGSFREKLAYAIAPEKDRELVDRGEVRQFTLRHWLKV
T3 sequence (P23977 whole entry): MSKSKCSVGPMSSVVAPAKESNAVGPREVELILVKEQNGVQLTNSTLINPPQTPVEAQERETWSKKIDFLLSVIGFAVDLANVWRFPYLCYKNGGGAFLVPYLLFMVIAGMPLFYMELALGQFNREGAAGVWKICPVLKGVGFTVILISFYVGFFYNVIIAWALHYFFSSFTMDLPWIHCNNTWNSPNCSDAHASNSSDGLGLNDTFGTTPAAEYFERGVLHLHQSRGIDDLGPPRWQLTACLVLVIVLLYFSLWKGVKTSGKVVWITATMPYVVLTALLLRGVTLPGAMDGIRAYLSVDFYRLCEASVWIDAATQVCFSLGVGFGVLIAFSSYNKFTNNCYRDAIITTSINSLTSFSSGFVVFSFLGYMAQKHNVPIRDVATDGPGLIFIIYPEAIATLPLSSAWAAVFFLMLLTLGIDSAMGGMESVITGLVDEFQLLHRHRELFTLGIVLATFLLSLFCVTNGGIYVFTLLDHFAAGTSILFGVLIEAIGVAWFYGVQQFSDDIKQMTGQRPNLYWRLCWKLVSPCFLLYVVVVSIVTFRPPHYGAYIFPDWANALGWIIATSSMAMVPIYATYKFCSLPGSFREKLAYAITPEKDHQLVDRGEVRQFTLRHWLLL

The term Tmax denotes the time at which the peak concentration occurs. Consider `Fc1cc(F)c(OCc2ccccc2C2CCNCC2)c(F)c1` [TD-9855, 4-[2-(2,4,6-trifluorophenoxymethyl)phenyl]piperidine], for which the IC50 in data set [1] was 158 nM. In addition, the “Neurotransmitter Uptake Inhibition: pIC50 NET” value in data set [2] is 8.9 (8.6, 9.1). Further, in data set [3], the “functional selectivity for NET over SERT” value is on record as 10 fold. In addition, the IC50 in data set [4] was 126 nM. In data set [5], the “K01, first-order absorption rate constant” value is recorded as 0.777 (108) hr^-1; the V/F was 54.8 (66) L/kg; the k el is 8.86e-05 s⁻¹. The “mean plasma concentration at SERT scan” value in [6] is reported as 6.35 ng/mL. Besides, in data set [7] (read-out: association rate constant at NET (converted)), the kon is 917000 M⁻¹ s⁻¹. For the same compound, the koff in data set [7] (read-out: dissociation rate constant at NET (converted)) is 0.00115 s⁻¹. For the same compound, in data set [8], the “clinical laboratory values, physical examination, vital signs, ECG” value is reported as “No clinically significant abnormalities”; the “deaths and adverse events” value was “No deaths, severe AEs, or AEs occurred”; the overall tolerability entry was “well tolerated”. The Tmax in data set [9] (ascending single dose studies, ref Theravance Biopharma US, Inc.) was 6 to 12 h. Also, the “pharmacokinetic (plasma) half-life” value in data set [9] (ref Theravance Biopharma US, Inc.) is 30 to 40 h. The “accumulation in plasma after repeated administration” value in data set [9] (ref Theravance) is on record as 3- to 4 fold. Also, the plasma protein binding in data set [10] is 90.2%. In addition, the P-gp substrate status result in data set [11] is “non-P-gp substrate”. Further, the Ki in [12] was 2 nM. In addition, the Ki in data set [13] is 1.58 nM.
